Key:
[1] = test system: normal human dermal fibroblasts (NHDF); test: Labelling of human cells with dyes (plate fluorescence); format: cell-based; conditions: 2 μM dye, 1 hr 37° C., washed with HBSS; higher = more incorporation
Description: Labelling of human cells with dyes 1-10 was performed according to the following procedure. Each well of a Costar 96 well flat bottom plate was seeded with 5,000 normal human dermal fibroblasts (NHDF; not older than P9) and allowed to attach overnight in full media: fibroblast growth media (Lonza)+2% v/v fetal calf serum. Each dye was diluted 1:50 from a stock of 1 mM with 10 mM L-histidine, 150 mM NaCl, pH 6.0, to a final concentration of 20 μM. The dye was subsequently added to full media at a further 1:10 dilution to a final concentration of 2 μM. The media on the cells was subsequently replaced with the freshly prepared full media containing the dye. For negative controls, an equivalent volume of the diluent solution was added to the cell solution. Cells were incubated for 1 hr at 37° C. and then washed with 1 xHBSS (Hank's balanced salt solution) to remove free dye. Plate was imaged using the CLARIOStar spectrophotometer (5x5 matrix mode, average of 25 data points, 3 wells for each dye). A higher fluorescence indicates a higher amount of incorporation into the cells.

[2] = test system: NHDF; test: Imaging human cells labelled with dye (microscopy); format: cell-based; conditions: 0.2 μM dye
Description: (§1) The cells were imaged to assess incorporation of the dyes according to the following procedure. Cell+dye 2 samples were prepared following the procedure in Example 4 with the following modifications: the cells were seeded with NHDF (not older than P9), human umbilical cord-derived mesenchymal stem cells (UC-MSCs) or bone marrow-derived MSCs (BM-MSCs); and the dye 2 was used in a final concentration of 0.2 μM. Before imaging, each well was washed with 1× HBSS (−) once. 100-200 μL of 1× HBSS (−) was added to each well prior to imaging to make sure the cells are not dried out. The cells were imaged on a Thermo Fisher Evos M5000 microscope equipped with the Texas Red filter. Routinely utilized conditions are (magnification, light, exposure, gain): 10× Texas Red, 22, 146, 105; 20× Texas Red, 12, 133, 64; 40× Texas Red, 36, 79, 40. Settings were held constant for all images taken on the same plate.

[3] = test system: bone marrow-derived MSCs (BM-MSCs); test: Imaging human cells labelled with dye (microscopy); format: cell-based; conditions: 0.2 μM dye
Description: as §1

[4] = test system: human umbilical cord-derived mesenchymal stem cells (UC-MSCs); test: Imaging human cells labelled with dye (microscopy); format: cell-based; conditions: 0.2 μM dye
Description: as §1

[5] = test system: CD4+ T cells; test: Multi-donor mixed lymphocyte reaction (mdMLR) assay; format: cell-based, human
Excerpt: The immunomodulatory potential of dye 2-labelled and non-labelled MSC-EV preparations were compared in a multi-donor mixed lymphocyte reaction assay (MLR) as described previously (Madel et al., 2020, Independent human mesenchymal stromal cell-derived extracellular vesicle preparations differentially affect symptoms in an advanced murine Graft-versus-Host-Disease model. bioRxiv, 2020.2012.2021.423658). Briefly, Ficoll prepared peripheral blood mononuclear cells (PBMC) of 12 healthy donors were mixed in equal proportions, aliquoted and stored in the vapour phase of liquid nitrogen until usage. After thawing 600,000 cells were seeded per well of a 96-well U-bottom shape plates (Corning, Kaiserslautern, Germany) and cultured in 10% human AB serum (produced in house) and 100 U/mL penicillin and 100 µg/mL streptomycin (Thermo Fisher Scientific) supplemented RPMI 1640 medium (Thermo Fisher Scientific) in a final volume of 200 μL per well, either in the presence or absence of MSC-EV preparations to be tested. After 5 days, cells were harvested, stained with a collection of different fluorescent labelled antibodies (CD4-BV785; BioLegend, San Diego, CA, USA; CD25-PE-Cy5.5; BD Bioscience; and CD54-AF700; EXBIO) and analysed on a Cytoflex flow cytometer (Software CytExpert 2.3, Beckman-Coulter). […]

Question: What does the source list for `CCCCCCCCCCCCCCCCCCN(C)C(=O)c1ccccc1-c1c2ccc(=[N+](CC)CC)cc-2oc2cc(N(CC)CC)ccc12.[Cl-]` [Dye 2, Rhodamine B N-methyloctadecylamide]?
Answer: FLD [1]: 123449; labelling of cells (microscopy, FIG. 3(a)) [2]: capable of labelling; labelling of cells (microscopy, FIG. 3(c)) [3]: capable of labelling; labelling of cells (microscopy, FIG. 3(b)) [4]: capable of labelling; influence on activation status of CD4+ T cells ([5]; buffer solved dye alone): did not influence the activation status; reduction in CD4+ T cell activation ([5]; dye 2-labelled MSC-EV preparations (n=3), versus non-labelled): comparable reduction
